Test [1] relates to soil-derived propane-consuming mixed culture. Kind of test: TCE cometabolism and biomass production of mixed culture after acetylene exposure. The class given is cell-based, mixed culture enriched from an uncontaminated soil. The settings on record: for TCE consumption rate: 5% v/v acetylene, 50 μM TCE. From the text: (§1) Aerobic cometabolism of TCE is a viable methodology for TCE removal in large diffuse contaminant plumes. A pure culture of the known aerobic cometabolic TCE degrader, Mycobacterium austroafricanum JOB5 (formerly known as Mycobacterium vaccae JOB5) and a mixed culture enriched from an uncontaminated soil in mineral medium using propane and oxygen as growth substrates were used to test the efficiency of acetylene in reducing biomass growth rate (e.g., a proxy for bioclogging). The mixed culture was created through serial transfers from the original soil microcosms.
(§2) The pure and mixed cultures were then exposed to 50 μM TCE to verify their capacity to aerobically cometabolically degrade TCE. Once their capability to degrade TCE was verified, both cultures were grown in 2 L bottles and fed oxygen and propane until the optical density at 600 nm stabilized at ˜0.2 for multiple days. Then, the two cultures were exposed to acetylene at 5% v/v for varying lengths of time (no exposure (0), 1, 2, 4 and 8 days). The dissolved acetylene concentration in the 2 L bottles was 2.2 mmol/L.
(§3) After the set acetylene exposure time, culture was extracted, and triplicate bottles were started with 50 μM TCE and a pure oxygen headspace. The cultures were then monitored for propane (residual and added) and oxygen consumption, TCE degradation, carbon dioxide production, biomass production, and pH change.

Test [2] deals with Mycobacterium austroafricanum JOB-5 (JOB-5) and a mixed culture, named COMET1. Kind of test: Soil columns with contaminated site soil and groundwater, flow through mode, acetylene-containing groundwater. More on the design: species or system Mycobacterium austroafricanum JOB-5 and COMET1 mixed culture. As to conditions: soil columns, propane fed and acetylene inhibited, two three-hour pulses per day at 0.2 mL/min. How it is done: Groundwater was pumped at a 2-Day HRT (0.2 mL/min) from six pumps programmed to automatically turn on and turn off to deliver groundwater of varying chemistries to the soil columns. For the Propane-Fed (pumps 2-3) and the Propane-Fed and Acetylene-Inhibited treatments (pumps 4-6) which had multiple pumps feeding into one line PVC plastic check valves were installed at line splitting locations to avoid backflow to other feeder bags when pumps automatically started or stopped pumping according to the schedule presented in FIG. 5.
Acetylene or propane from a gas tank was bubbled into groundwater in a closed container in the lab. That groundwater was then pumped from closed container to a sealable Tedlar bag. The Tedlar bag was then connected to the pump which was controlled by a timer to deliver two three-hour pulses of acetylene containing groundwater at 0.2 mL/min per day. The pump effectively serves as a seal for the Tedlar bag as the tubing is pinched at one location to create suction.
For propane, 0.5 L of propane was bubbled through 10 L water for at least four hours. That propane-containing water was then pumped into a Tedlar bag. For the treatments which received propane-containing water, the water was pumped into the columns at 0.2 mL/min to 6 hrs/day (two three-hour pulses). For acetylene, 0.5 L of acetylene was bubbled through 10 L water for at least four hours. That acetylene-containing water was then pumped into a Tedlar bag. For the treatments which received acetylene-containing water, the water was pumped into the columns at 0.2 mL/min to 6 hrs/day (two three-hour pulses) […]
Phase I involves bioaugmentation in soil columns in batch mode. […] Batches were continued until either propane was not detected in the groundwater or propane consumption slowed. […]
Phase II involves flow through mode. […] These gas syringes were then analyzed for TCE, propane, and acetylene via gas chromatography with flame ionization detection (GC-FID) and for oxygen and carbon dioxide via assessment of a thermal conductivity detector (TCD). […]

The subject of test [3] is Mycobacterium austroafricanum JOB5. Kind of test: TCE cometabolism and biomass production of pure culture after acetylene exposure. It is filed as cell-based. As to conditions: for TCE consumption rate: 5% v/v acetylene, 50 μM TCE.
Source text: as §1, §2, §3

[4] abbreviates: as acetylene exposure times increased (1-8 days), 5% v/v.

`C#C` [acetylene]: the “rate of TCE degradation” value in test [1] (setting [4]) and in test [3] (setting [4]) was “decreased” throughout. Further, the “rate of biomass production (optical density)” value in test [1] (setting [4]) and in test [3] (setting [4]) was “decreased” in each case. Moreover, the TCE consumption rate in test [1] (day 1 of acetylene exposure) is 0.45 μmol TCE/(L day); in test [1] (day 2 of acetylene exposure), 0.54 μmol TCE/(L day); in test [1] (day 4 of acetylene exposure), 0.52 μmol TCE/(L day); in test [1] (day 8 of acetylene exposure), 0.25 μmol TCE/(L day); in test [3] (day 1 of acetylene exposure), 0.42 μmol TCE/(L day); in test [3] (day 2 of acetylene exposure), 0.63 μmol TCE/(L day). The TCE consumption rate in test [3] (day 4 of acetylene exposure) was 0.36 μmol TCE/(L day); in test [3] (day 8 of acetylene exposure) it was 0.07 μmol TCE/(L day). Also, the “TCE degradation (cumulative TCE removal)” value in test [2] is “slowed”. The “biomass production (total organic carbon as proxy)” value in test [2] was “slowed”. Besides, the “propane consumption (cumulative)” value in test [2] was “slowed”.

The record behind these values is US20250178051A1, “METHODS OF CONTROLLING MICROBIOLOGICAL PROCESSES FOR IN SITU CONTAMINANT TREATMENT” (priority 2022, published 2025).
